“And” between values parts separate entries of the source, which are not always exact repeats. Identical values can stand only once.
Tests used:
[1] = tested on: p27^Kip1 levels in A549 lung cancer cells; experiment: Western blot of p27Kip1 in cultured A549 cells; assay type: cell-based, human; conditions: 48 h treatment
Experimental: (§1) Cell lysates (50 μg) were separated by SDS-PAGE and transferred to a nitrocellulose membrane, probed with p27^Kip1 and β-actin antibodies, and signals were visualized by enhanced chemoluminescence (ECL, Amersham, Piscataway, N.J.) according to the manufacturer's protocol.

[2] = target: tumor PGPH activity (A549 tumors) (Homo sapiens, UniProt P28072); experiment: Proteasome activity in A549 tumor lysates after in vivo treatment
Experimental: (§5) To determine proteasome activity in whole cell extracts from cultured cells (5 μg) or tumor and liver tissue extracts (30 μg) from nude mice, the same assay was used except that the buffer was changed to 20 mM HEPES, 0.5 mM EDTA, pH 8.0.
(§6) Whole cell extracts were prepared as follows: Cells were harvested, washed with PBS twice, and homogenized in a lysis buffer (50 mM Tris-HCl, pH 8.0, 5 mM EDTA, 150 mM NaCl, 0.5% NP-40) for 30 min at 4° C. Cell extracts from tumors and livers of nude mice were prepared in 50 mM HEPES, 0.5 mM EDTA, pH 8.0. Cell lysates were centrifuged at 12,000 g for 15 min, and the supernatants were collected as whole cell extracts.
(§7) Nude mice (Charles River Laboratories, Wilmington, Mass.) were maintained and treated in accordance with the Institutional Animal Care and Use Committee procedures and guidelines. […] Exponentially growing MCF-7 and A549 cells were harvested via trypsinization, pelleted at 300 g for 5 minutes, resuspended in sterile PBS (Invitrogen) at 10^7 cells per 100 μl, and injected into each flank of mice. The tumor xenografts were monitored with an electronic caliper every other day for 16 days. Tumor volume was calculated using the formula V=W^2L, where width is the largest diameter and length is the smallest diameter. When the tumors reached ˜200 mm^3, the animals were randomized and treatment schedules were implemented. […]

[3] = tested on: primary multiple myeloma cells isolated from patients' bone marrow; experiment: Proliferation of primary multiple myeloma cells (Trypan blue); assay type: cell-based, human; conditions: primary MM cells, 24 h treatment, Table 5: one value per patient, mean over patients
Experimental: (§2) MM patients' bone marrow samples were collected from Liquid Tissue Bank facility. Freshly isolated bone marrow samples were fractionated by Ficoll-Paque (Pharmacia Biotech, Piscataway, N.J.) sedimentation. The mononuclear cellular layer was then resuspended in RPMI-1640 containing 10% heat-inactivated fetal bovine serum, 10 mM HEPES (pH 7.4), sodium pyruvate, L-glutamine, and 1% penicillin-streptomycin.
(§3) Adherent cells were harvested using trypsinization and pooled with suspension cells from media supernatant by pelleting at 300 g for 5 min at 4° C. The cells were then resuspended in an appropriate volume of media by pipetting gently up and down. Two 20 μl aliquots were removed and combined with an equal volume of 0.4% Trypan blue and allowed to mix for 1 minute. A 10 μl volume was loaded onto a hemacytometer and cells were scored as live or dead based on Trypan blue dye exclusion and the percentage of dead cell number to total cell number was calculated. To calculate the percentage of proliferation, the number of live cells in the treated samples was divided by the number of live cells in the untreated vehicle control.

[4] = target: T1, tumor CT-L activity (A549 tumors) (Homo sapiens, UniProt P20618+P28074); experiment: Proteasome activity in A549 tumor lysates after in vivo treatment; parameters: species or system nude mice; conditions: mouse, ip; A549 tumors extracted 2 hours after last i.p. injection (1 mpk), vs DMSO-treated controls
T1 construct: from tissue; host or cells: A549 human lung tumour xenografts grown in nude mice
Experimental: as §5, §6, §7

[5] = target: T2, trypsin-like (T-L) activity of purified 20S rabbit proteasome (Oryctolagus cuniculus, UniProt G1SWK8); experiment: Proteolytic activity of purified 20S proteasome, fluorogenic substrate Bz-Val-Gly-Arg-AMC; assay type: biochemical; conditions: Table 4: means of 3 experiments ± standard error, read-out: IC50 for T-L activity in vitro
T2 construct: purchased Boston Biochem
Experimental: (§4) In the high-throughput screen, the inventors used fluorogenic peptides as substrates to assay 3,229 compounds of the NCI Diversity, Natural Product, Challenge and Mechanistic Sets for inhibitory activity against the proteolytic activities of the purified 20S proteasome, resulting in the identification of PI-083. […] After incubation, production of hydrolyzed 7-amido-4-methyl-coumarin (AMC) groups was measured using a WALLAC Victor^2 1420 Multilabel Counter with an excitation filter of 355 nm and an emission filter of 460 nm (Perkin Elmer Life Sciences, Turku, Finland).

[6] = tested on: CT-L activity of rabbit 20S proteasome; experiment: Dialysis using purified rabbit 20S proteasome; assay type: biochemical; conditions: compound 10 μM, 30 min pre-incubation at 37° C.
Experimental: To measure the effect of dialysis on CT-L activity, compounds (10 μM) or vehicle (0.1% DMSO) were added to rabbit 20S proteasome (225 ng) (Boston Biochem) in proteasome assay buffer (50 mM Tris-HCl, pH 7.6) and incubated at 37° C. for 30 min. After 30 min of incubation, proteasome-compound mixtures were added to 10,000 MWCO Thermo Scientific Slide-A-Lyzer Dialysis Cassette (Rockford, Ill.) and dialyzed against proteasome assay buffer. Immediately (t=0) and 0.5 h, 1 h, 2 h, 4 h, and 18 h of dialysis at 4° C., samples were removed from the dialysis cassette and the CT-L 20S proteasome activity was determined. Proteasome activity was normalized against proteasome activity of DMSO control.

[7] = tested on: MCF-7/MCF-10A, T-80-Hras/T-80, C7-Kras/C7 cells; experiment: TUNEL assay, apoptosis in cancer and non-transformed cell pairs; assay type: cell-based, human; conditions: 3 pairs of cell lines, 24 h
Experimental: Terminal deoxynucleotidyl transferase-mediated nick-end labeling (TUNEL) was used to determine the extent of DNA strand breaks (Kazi et al., 2004). The assay was performed with the APO-Direct Kit following the manufacturer's instructions. In brief, the harvested cells were fixed in 1% paraformaldehyde for 45 minutes on ice, washed twice with PBS, and then fixed again in 70% ethanol at −20° C. overnight. The cells were then incubated in DNA labeling solution (containing terminal deoxynucleotidyl transferase (TdT) enzyme, fluorescence-conjugated dUTP and reaction buffer) for 60 minutes at 37° C. After rinsing the cells to remove the DNA labeling solution, the cells were incubated with the propidium iodide/RNase A solution, incubated for 30 minutes at room temperature in the dark, and analyzed by flow cytometry within 3 hours of staining.

[8] = target: T3, PGPH activity of purified 20S rabbit proteasome (Oryctolagus cuniculus, UniProt A0A5F9DQW2); experiment: Proteolytic activity of purified 20S proteasome, fluorogenic substrate Z-Leu-Leu-Glu-AMC; assay type: biochemical; conditions: Table 4: means of 3 experiments ± standard error, read-out: IC50 for PGPH-like activity in vitro
T3 construct: purchased Boston Biochem
Experimental: as §4

[9] = target: T4, hepatic CT-L, T-L, and PGPH activities (Mus musculus, UniProt O09061+O55234+P70195+Q60692); experiment: Proteasome activities in livers of tumor-bearing mice after in vivo treatment; parameters: species or system nude mice; conditions: livers extracted 2 hours after last i.p. injection (1 mpk)
T4 construct: from tissue; host or cells: liver of tumour-bearing nude mice (Charles River)
Experimental: as §5, §6, §7

[10] = tested on: p27^Kip1 protein in A549 tumors; experiment: Western blot of p27Kip1 in A549 tumor lysates; assay type: in vivo; conditions: A549-bearing nude mice
Experimental: as §1

[11] = tested on: primary multiple myeloma cells isolated from patients' bone marrow; experiment: Cell death of primary multiple myeloma cells (Trypan blue); assay type: cell-based, human; conditions: read-out: Cell death 24 h (IC50 values); primary MM cells, 24 h treatment; Table 5: one value per patient; mean over patients
Experimental: as §2, §3

[12] = read-out: Proliferation 24 h (IC50 values)

T2 sequence (G1SWK8 1-271): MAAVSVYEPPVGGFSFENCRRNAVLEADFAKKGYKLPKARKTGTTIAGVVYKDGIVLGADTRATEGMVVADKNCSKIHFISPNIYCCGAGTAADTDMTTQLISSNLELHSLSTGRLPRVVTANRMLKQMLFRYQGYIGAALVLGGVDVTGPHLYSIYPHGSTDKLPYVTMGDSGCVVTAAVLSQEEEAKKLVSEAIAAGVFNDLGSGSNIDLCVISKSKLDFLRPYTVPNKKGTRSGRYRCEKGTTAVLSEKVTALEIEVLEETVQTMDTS
T3 sequence (A0A5F9DQW2 1-212): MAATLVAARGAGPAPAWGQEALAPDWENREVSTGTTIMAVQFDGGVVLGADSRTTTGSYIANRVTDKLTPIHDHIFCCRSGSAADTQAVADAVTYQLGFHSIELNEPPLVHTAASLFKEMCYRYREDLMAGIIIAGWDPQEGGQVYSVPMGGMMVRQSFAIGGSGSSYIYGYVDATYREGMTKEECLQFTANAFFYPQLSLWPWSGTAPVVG

| SMILES | p27^Kip1 levels in cultured A549 lung cancer cells [1] | inhibition of tumor PGPH activity ([2]; A549 tumors extracted 2 hours after last i.p. injection (1 mpk), vs DMSO-treated controls) [%] | IC50 ([3]; Homo sapiens, Multiple myeloma cell, read-out: Proliferation 24 h (IC50 values, μM)) [µM] | IC50 [3, 12] | inhibition at 1 mg/kg [4] [%] | IC50 [5] [µM] | inhibition of CT-L activity of the 20S proteasome in the absence of dialysis [6] [%] | apoptosis (TUNEL) [7] | IC50 [8] [nM] | effect on proteasome activities in livers of tumor-bearing mice [9] | treated tumors with dramatic upregulation of p27^Kip1 protein [10] | inhibition at 1 mg/kg ([2]; A549, mouse, ip, read-out: inhibition of tumor PGPH activity) [%] | IC50 [11] |
| --- | --- | --- | --- | --- | --- | --- | --- | --- | --- | --- | --- | --- | --- |
| CC(C)C[C@H](NC(=O)[C@H](Cc1ccccc1)NC(=O)c1cnccn1)B(O)O [Bortezomib, reference compound] | marked increase | 68 | > 10 | > 10 µM | 70 | 7.02 | 99 | induced little apoptosis in any of the cell lines | 475 | significantly inhibited hepatic CT-L, T-L, and PGPH activities | 4 out of 4 | – | – |
| O=C1C(Cl)=C(Nc2ccc(S(=O)(=O)Nc3ccccn3)cc2)C(=O)c2ccccc21 [PI-083, 4-(3-chloro-1,4-dioxo-1,4-dihydronaphthalen-2-ylamino)-N-(pyridin-2-yl)benzenesulfonamide] | – | – | – | 6.6 µM and 1.3 µM and 2.2 µM and 2.6 µM and 1.7 µM and 2.8 µM and 10 µM and 5 µM and 2.9 µM | 43 | – | – | – | – | did not inhibit liver proteasome activities | – | 34 | 6.2 µM and 2.7 µM and 1.1 µM and 2.4 µM and 1.7 µM and 4.1 µM and 9 µM and 7.3 µM and 3.2 µM |

— US8673910B2, “Proteasome inhibitors for selectively inducing apoptosis in cancer cells” (H. Lee Moffitt Cancer Center and Research Institute, priority 2008, dated 2014)
